# Marks after values point to notes of the source that are not given here.
# Key:
# Assay type in all cases: in vivo
# mice [1] = assay: Hypobaric hypoxia in pressure chamber, adult mice; conditions: for Duration of life: adult mice, hypobaric hypoxia
# rats = assay: 14-day immobilization in antiorthostatic position (Ds), thymus, spleen, adrenal mass ratios Kt; conditions: Ds-conditions; for S/A: spleen/adrenals ratio (mg/100 g baseline body weight); for S/T: spleen/thymus ratio (mg/100 g baseline body weight); for T/A: thymus/adrenals ratio (mg/100 g baseline body weight)
# mice [2] = assay: Electric extremities pain stimulation, thresholds TA, TFC, TF
# mice [3] = assay: Benzedrine-induced stimulation of orientation-locomotor activity; conditions: mice; Benzedrine 3.0 mg/kg alone
# Excerpt: In regard to influencing the effects of Benzedrine, Phenotropil also can provide, depending on the dose, the diametrically opposite activity when in combination with psychostimulants. This fact must be taken into account in combined use of various pharmacological agents.
# mice [4] = assay: Duration of swimming in cold (2° C.) and normal (25° C.) water; conditions: single dose 2.5 mg/kg i.p.
# Procedure: Stimulatory effect on the duration of swimming in cold (2° C.) and normal (25° C.) water (Table 8.1-8.1.1) of Phenotropil (25 and 50 mg/kg) compared with the control (distilled water) and Benzedrine (2.5 mg/kg) was studied in white outbred male mice (18-26 g) compared to control (distilled water) when intraperitoneally administered, 60 min after the administration and with a course administration for 4 weeks administration on day 28 (Table 8.1.2). […] At normal temperature of water, the effect of Benzedrine was not modified and stayed at 34%.
# The advantage of psychomodulator Phenotropil is obvious both with the single dose and the course use, by the effect on physical performance and stability of the body, both in normal and more adverse temperature conditions.
# mice [5] = assay: Apomorphine verticalization (positive symptoms of schizophrenia); conditions: mice, apomorphine 2 mg/kg s.c.
# Procedure: (§1) Studies have been conducted on white outbred male mice (18-24 g), in comparison with the olanzapine (Zyprexa) with intraperitoneal injection.
# In the model of positive symptoms of schizophrenia associated with hyperactivation of the dopamine systems, which allows to identify the ability of substances to block the dopaminergic transmission in the mesolimbic system of the brain, Phenotropil (100, 200, and 300 mg/kg) reduced the apomorphine-induced (2 mg/kg subcutaneously) verticalization intensity scores (Table 4) by 45%, by 2.0 and 2.6 times, respectively.
# mice [6] = assay: Tremor caused by arecoline
# Excerpt: as §1
# mice [7] = assay: Open field test
# Procedure: Study of the effect of Phenotropil (100, 200, 300 mg/kg) on motor activity and exploratory behavior by the open field test on mice (16-24 g) in comparison with olanzapine (1 mg/kg) is shown in Tables 5-5.4. Olanzapine at higher doses has sedative activity, so for comparison with Phenotropil, the drug was used only at a dose of 1 mg/kg. The drugs and distilled water to control groups were injected intraperitoneally 40 minutes prior to the study. […] This indicates the ability of the drug to reversibility, unlike olanzapine.
# mice [8] = assay: Cross maze exploratory behavior, HEF and LEF mice; conditions: i.p. once a day 5 days, Compounds 1 and 4 100 mg/kg, Piracetam 200 mg/kg
# rabbits = assay: Transcallosal stimulation induced potential (TSIP); conditions: Piracetam 300-500, Pyritinol 50-150, Phenotropil 25-300 mg/kg
compound,measurement,setting,value
"O=C1CC(c2ccccc2)CN1 (racemic) [Fepiron, 4(R,S)-feniilpirrolidin-2-one]",increase of survival time vs control,mice [1]; 100 mg/kg,47.8%
same,effect on survival of the animals,mice [1]; 25-50 mg/kg,did not affect the survival of the animals
same,Duration of life,mice [1]; 25 mg/kg,2.3 ± 0.2^ min
same,Duration of life,mice [1]; 50 mg/kg,2.7 ± 0.2^ min
same,Duration of life,mice [1]; 100 mg/kg,3.4 ± 0.2 min
same,S/A,rats; 50 mg/kg,11.3 ± 0.3
same,S/T,rats; 50 mg/kg,5.4 ± 0.3
same,T/A,rats; 50 mg/kg,2.1 ± 0.2
same,S/A,rats; 100 mg/kg,9.0 ± 0.3
same,S/T,rats; 100 mg/kg,5.4 ± 0.3
same,T/A,rats; 100 mg/kg,1.6 ± 0.3
same,S/A,rats; 200 mg/kg,9.4 ± 0.4
same,S/T,rats; 200 mg/kg,9.5 ± 0.9
same,T/A,rats; 200 mg/kg,1.0 ± 0.1
same,TA (threshold of attention) vs control,mice [2]; 25 mg/kg i.p.,0.0%
same,TFC (threshold of first cheep) vs control,mice [2]; 25 mg/kg i.p.,−5.7%
same,TA (threshold of attention) vs control,mice [2]; 50 mg/kg i.p.,+5.0%
same,TFC (threshold of first cheep) vs control,mice [2]; 50 mg/kg i.p.,+11.4 * %
same,TA (threshold of attention) vs control,mice [2]; 100 mg/kg i.p.,+12.5 * %
same,TFC (threshold of first cheep) vs control,mice [2]; 100 mg/kg i.p.,+2.8%
"CC(N)Cc1ccccc1 (stereo not drawn) [Benzedrine, reference compound]",Number of pulses for 3 min.,mice [3],84.3 ± 7.9
same,Number of stand-ups for 3 min.,mice [3],14.2 ± 1.8
same,Duration of swimming,mice [4],160.70 ± 11.75 min
same,Duration of swimming,mice [4]; water 2° C.,1.60 ± 0.2 min
NC(=O)CN1CC(c2ccccc2)CC1=O (stereo not drawn) [Fepiron (+)],S/A,rats; 200 mg/kg,11.3 ± 0.4
same,S/T,rats; 200 mg/kg,5.4 ± 0.1
same,T/A,rats; 200 mg/kg,2.1 ± 0.6
NC(=O)CN1CC(c2ccccc2)CC1=O (stereo not drawn) [Fepiron (−)],S/A,rats; 200 mg/kg,9.0 ± 0.5
same,S/T,rats; 200 mg/kg,4.9 ± 0.7
same,T/A,rats; 200 mg/kg,1.9 ± 0.3
"Cc1cc2c(s1)Nc1ccccc1N=C2N1CCN(C)CC1 [Olanzapine, reference compound]",Intensity of verticalization in points,mice [5]; 1.0 mg/kg i.p.,36 ± 8.7 points
same,Intensity of verticalization in points,mice [5]; 10 mg/kg i.p.,16.4 ± 8.4*^ points
same,reduction of duration of tremor,mice [6]; 1 mg/kg,57%
same,Duration of tremor,"mice [6]; mice, arecoline 25 mg/kg, 1.0 mg/kg",178 ± 28 s
same,effect on number of explorations compared to the control,mice [7]; 1 mg/kg,no effect
same,increase of number of washes during 1 and 2 minutes,mice [7]; 1 mg/kg,150%
same,increase of number of washes in total,mice [7]; 1 mg/kg,200%
same,reduction of number of rearings,mice [7]; 1 mg/kg,47%
same,"reduction of number of visits to the center, total index",mice [7]; 1 mg/kg,39%
same,reduction of overall run distance,mice [7]; 1 mg/kg,36%
same,Distance covered during 1st min (horizontal motor activity),"mice [7]; mice, 1 mg/kg i.p.",8.3 ± 1.6
same,Distance during 2nd min (horizontal motor activity),"mice [7]; mice, 1 mg/kg i.p.",8.8 ± 0.8
same,Distance during 3rd min (horizontal motor activity),"mice [7]; mice, 1 mg/kg i.p.",10.2 ± 0.9
same,Explorations during 2nd min,"mice [7]; mice, 1 mg/kg i.p.",0.5 ± 0.2^
same,Explorations during 3rd min,"mice [7]; mice, 1 mg/kg i.p.",1.0 ± 0.3
same,Number of explorations (holes) during 1st min,"mice [7]; mice, 1 mg/kg i.p.",0.7 ± 0.2^
same,Number of washings during 1st min,"mice [7]; mice, 1 mg/kg i.p.",0.5 ± 0.2
same,Total distance at 3 min (horizontal motor activity),"mice [7]; mice, 1 mg/kg i.p.",27.3 ± 2.6
same,Total number of explorations at 3 min,"mice [7]; mice, 1 mg/kg i.p.",2.2 ± 0.4^
same,Total number of visits to the center at 3 min,"mice [7]; mice, 1 mg/kg i.p.",0.7 ± 0.3
same,Total number of washings at 3 min,"mice [7]; mice, 1 mg/kg i.p.",1.2 ± 0.4
same,Visits to the center during 1st min,"mice [7]; mice, 1 mg/kg i.p.",0 ± 0
same,Visits to the center during 2nd min,"mice [7]; mice, 1 mg/kg i.p.",0.5 ± 0.2
same,Visits to the center during 3rd min,"mice [7]; mice, 1 mg/kg i.p.",0.2 ± 0.2
same,Washings during 2nd min,"mice [7]; mice, 1 mg/kg i.p.",0.5 ± 0.2
same,Washings during 3rd min,"mice [7]; mice, 1 mg/kg i.p.",0.2 ± 0.2
same,"vertical motor activity, 1st min (Distance covered)","mice [7]; mice, 1 mg/kg i.p.",0.8 ± 0.3
same,"vertical motor activity, 2nd min","mice [7]; mice, 1 mg/kg i.p.",0.3 ± 0.2
same,"vertical motor activity, 3rd min","mice [7]; mice, 1 mg/kg i.p.",0.5 ± 0.2
same,"vertical motor activity, total at 3 min","mice [7]; mice, 1 mg/kg i.p.",1.7 ± 0.4
NCC(CC(=O)O)c1ccccc1 (stereo not drawn) [Phenibut (+)],S/A,rats; 50 mg/kg,13.0 ± 0.1
same,S/T,rats; 50 mg/kg,4.8 ± 0.1
same,T/A,rats; 50 mg/kg,2.7 ± 0.1
NCC(CC(=O)O)c1ccccc1 (stereo not drawn) [Phenibut (−)],S/A,rats; 50 mg/kg,12.0 ± 0.3
same,S/T,rats; 50 mg/kg,4.8 ± 0.3
same,T/A,rats; 50 mg/kg,2.5 ± 0.3
NC(=O)CN1CCCC1=O [Piracetam],Kt (trigger transmission coefficient),mice [8]; HEF mice,3.1 ± 0.45
same,Number of compartment explorations,mice [8]; HEF mice,4.2 ± 0.7 //
same,Number of surveillances,mice [8]; HEF mice,1.9 ± 0.2
same,Kt (trigger transmission coefficient),mice [8]; LEF mice,2.4 ± 0.5
same,Number of compartment explorations,mice [8]; LEF mice,5.3 ± 0.8 //
same,Number of surveillances,mice [8]; LEF mice,2.2 ± 0.2
same,Kt (trigger transmission coefficient),mice [8]; population as a whole,1.3 ± 0.45
same,Number of compartment explorations,mice [8]; population as a whole,4.6 ± 0.7 //
same,Number of surveillances,mice [8]; population as a whole,2.0 ± 0.2
same,TSIP P1 + N1 amplitude,rabbits,++ (amplitude increase by 30 to 50%)
same,TSIP component N1 amplitude,rabbits,++ (amplitude increase by 30 to 50%)
same,TSIP component P1 amplitude,rabbits,+++ (amplitude increase by more than 50%)
same,TSIP component P2 amplitude,rabbits,+ (amplitude increase by less than 50%)
same,shortening of survival time vs control,mice [1]; 600 mg/kg,35.0%
same,increase of survival time vs control,mice [1]; 900-2000 mg/kg,78.0%
same,Duration of life,mice [1]; 600 mg/kg,1.5 ± 0.6 min
same,Duration of life,mice [1]; 900 mg/kg,4.0 ± 0.6 min
same,Duration of life,mice [1]; 2000 mg/kg,4.2 ± 0.4 min
same,S/A,rats; 200 mg/kg,12.1 ± 1.5
same,S/T,rats; 200 mg/kg,7.4 ± 0.7
same,T/A,rats; 200 mg/kg,1.6 ± 0.2
same,S/A,rats; 400 mg/kg,10.8 ± 1.3
same,S/T,rats; 400 mg/kg,7.2 ± 0.4
same,T/A,rats; 400 mg/kg,1.5 ± 0.1
same,S/A,rats; 600 mg/kg,10.2 ± 0.1
same,S/T,rats; 600 mg/kg,4.0 ± 0.1
same,T/A,rats; 600 mg/kg,2.6 ± 0.1
same,decrease in the aggression threshold (TF),mice [2]; 100 mg/kg,11.3%
same,lowering of threshold of emotional reactivity (TFC),mice [2]; 100 mg/kg,23.5%
same,reduction of the pain threshold (TA),mice [2]; 100 mg/kg,43.6%
same,TA (threshold of attention) vs control,mice [2]; 100 mg/kg i.p.,−43.6 * %
same,TF (threshold of aggression) vs control,mice [2]; 100 mg/kg i.p.,−11.3 * %
same,TFC (threshold of first cheep) vs control,mice [2]; 100 mg/kg i.p.,−23.5 * %
same,lowering of threshold of emotional reactivity (TFC),mice [2]; 200 mg/kg,47.0%
same,reduction of the pain threshold (TA),mice [2]; 200 mg/kg,48.1%
same,TA (threshold of attention) vs control,mice [2]; 200 mg/kg i.p.,−48.1 * %
same,TFC (threshold of first cheep) vs control,mice [2]; 200 mg/kg i.p.,−47.0 * %
same,TF (threshold of aggression) vs control,"mice [2]; 200 mg/kg i.p., 200 mg/kg",−15.7 * %
same,TF (threshold of aggression) vs control,"mice [2]; 200 mg/kg i.p., listed as Pyracetam, 200 mg/kg",25.7%
same,reduction of the pain threshold (TA),mice [2]; 300 mg/k (so in the source),19.9%
same,increase of aggression threshold (TF),mice [2]; 300 mg/kg (so in the source),7.4%
same,TA (threshold of attention) vs control,mice [2]; 400 mg/kg i.p.,−20.0 * %
same,TF (threshold of aggression) vs control,mice [2]; 400 mg/kg i.p.,−7.4%
same,TFC (threshold of first cheep) vs control,mice [2]; 400 mg/kg i.p.,+5.0%
Cc1ncc(CSSCc2cnc(C)c(O)c2CO)c(CO)c1O [Pyritinol],TSIP P1 + N1 amplitude,rabbits,+ (amplitude increase by less than 50%)
same,TSIP component N1 amplitude,rabbits,+ (amplitude increase by less than 50%)
same,TSIP component P1 amplitude,rabbits,+ (amplitude increase by less than 50%)
same,TSIP component P2 amplitude,rabbits,+ (amplitude increase by less than 50%)
CN1C(=O)CN=C(c2ccccc2)c2cc(Cl)ccc21 [Seduxen],S/A,rats; 2 mg/kg,7.6 ± 0.2
same,S/T,rats; 2 mg/kg,3.6 ± 0.1
same,T/A,rats; 2 mg/kg,2.2 ± 1.4
NCC(CC(=O)O)c1ccccc1 (stereo not drawn) [phenibut],S/A,rats; 50 mg/kg,10.2 ± 0.3
same,S/T,rats; 50 mg/kg,7.6 ± 0.2
same,T/A,rats; 50 mg/kg,1.3 ± 0.6
same,S/A,rats; 100 mg/kg,8.0 ± 0.1
same,S/T,rats; 100 mg/kg,4.7 ± 0.1
same,T/A,rats; 100 mg/kg,1.7 ± 0.1
